# Source: patent US5814612A, “Retinol derivatives and uses thereof” (priority 1992, dated 1998)
# What was measured:
# [1] = system: B lymphocytes; conditions: cited from earlier work
# [2] = system: 5/2 cells; assay: B-cell growth assay ([3H]-thymidine uptake), lymphoblastoid 5/2 cells in serum-free HB101 medium; assay type: cell-based, human
# Experimental: Washed 5/2 cells (5,000/well) were incubated for 72 hours in HB101 medium with the indicated amounts of retinoids. DNA synthesis was measured by [^3 H] thymidine uptake. The measurements were done in triplicate. The SDs were <15%.
# In FIGS. 4B to 4D, 5/2 cells were washed twice and seeded at a concentration of 150,000 cells/ml in HB 101 medium. Triplicate samples of 100 μl of cell suspension were removed daily and pulsed for 6 hours with [^3 H] thymidine. Means are shown. The SDs were never >20%.
# P3 was purified as described in the Experimental Details section. 5/2 cells (5,000/well) were incubated for 72 hours in HB101 medium and refed with the indicated amount of retinoid daily. DNA synthesis was measured by [^3 H]-thymidine uptake. P3 is bioactive down to a concentration of 10-^8 M (FIG. 8). […] This is due either to chemical instability or to a more rapid metabolic degradation of P3 by the cells.
# The human EBV-transformed B-cell line 5/2 was established from the peripheral blood of a healthy donor. The cell line was grown in RPMI 1640 supplemented with 8% fetal calf serum, L-glutamine (2 mM), and antibiotics. The cell line was tested regularly for mycoplasma infections and was consistently negative.
# The assay system is a modification of the assay developed by Blazar et al. (12). […] Assays were done in 96 well microtiter plates in a final volume of 200 μl/well or in 25 cm^2 tissue culture flasks. The cells in the microtiter plates were cultured for 72 hours and cell growth was determined by labeling for the last 16 hours with 0.8 μCi/well of [^3 H]thymidine (sp. act. 6.7 Ci/mmol). Growth in the culture flasks was determined in three aliquots of 100 μl taken at 24 hours intervals and cultured in the presence of 0.8 μCi of [^3 H]thymidine for an additional 6 hour period. To determine the viable cell number, nine aliquots per time point were differentially counted in a Neubauer chamber in the presence of trypan blue.
# [3] = system: lymph node T cells; assay: Proliferation of anti-CD3 activated lymph node T cells; assay type: cell-based, BALB/c mouse
# From the text: Growth curves of lymph node T cells depleted of antigen-presenting cells (FIG. 17A) with and without 10^-6 M retinol at 2×10^5 and 5×10^4 cells/well. (FIG. 17B) Dose-responses elicited by different retinoids in cultures of lymph node T cells depleted of antigen-presenting cells. Also shown are the growth curves of CD4^+ (FIG. 17C) and CD8^+ T lymphocytes (FIG. 17D) in the presence of either retinol, 14HRR, human serum or in their absence.
# T lymphocytes, purified as described, 5×10^4 /well, were activated with immobilized anti-CD3 antibody in ITLB medium. The indicated amounts of retinoids or human serum were added at initiation of cultures. […] 14HRR was added every 12 hours. DNA synthesis was measured by a 4 hour pulse with tritiated thymidine. SDs were ≤17%.
# Mature T cells were obtained from pooled intestinal, axillary, inguinal and submandibular lymph nodes of 4 to 10-week-old BALB/c mice. To fractionate cells into CD4 and CD8 subsets and at the same time remove APC, a combination of adherence and complement lysis was used as follows:
# The cell suspension in a volume of 2 ml was applied to a nylon wool column (40) (0.6 g of washed nylon fibers in the barrel of a 10 ml syringe) and incubated at 37° C. for 40 min. […] The success of the enrichment procedures was monitored cytofluorimetrically using FITC-conjugated anti-CD8 and PE-conjugated anti-CD4. […]
# Cells were cultured in serum-free medium, referred to as ITLB, containing RPMI 1640 supplemented with 8×10^-7 M insulin (5 μg/ml), 7×10^-8 M transferrin (5 μg/ml), 2×10^-6 M linoleic acid, 2×10^-6 M delipidated BSA (0.12 mg/ml), 2 mM L-glutamine, 1 mM sodium pyruvate and antibiotics. […] The optimal concentration for stimulation of T cells was determined for each batch of anti-CD3 mAb and Con A. The optimal range of Con A was particularly narrow in serum-free medium (0.5-0.2 μg/ml) and varied with the cell density used. […] Cellular proliferation was determined by [^3 H] thymidine uptake (0.5 uCi/well; New England Nuclear, Boston, Mass.) after the incubation times indicated for each experiment with a 4 hour labeling pulse. […]
# [4] = system: thymocytes; assay: Proliferation of Con A stimulated thymocytes in serum-free ITLB medium; assay type: cell-based, BALB/c mouse; conditions: 3×10^-6 M retinol, Con A 0.5 μg/ml
# Experimental: Purified thymocytes (5×10^5 cells/well) were stimulated by TCR crosslinking with immobilized anti-CD3e antibody (FIG. 15A) or 0.4 μg/ml Con A (FIG. 15B) in serum-free ITLB medium. The indicated amounts of retinoids were added either once at the beginning of the experiment (marked as "1×") or every 12 hours thereafter (marked as "6×"). DNA synthesis was measured after 72 hours by tritiated thymidine uptake as described.
# Thymuses of 3 to 6-week-old BALB/c mice were teased in serum-free RPMI medium supplemented with 1% BSA, 10^-6 M linoleic acid and antibiotics. […] Cell viability was evaluated by trypan blue dye exclusion. To determine the extent of depletion of accessory cells, samples were stained with FITC-conjugated anti-Fc receptor antibody and analyzed by flow cytometry on a FACScan instrument (Becton Dickinson). No FcR-bearing cells were detected by this procedure.
# Cells were cultured in serum-free medium, referred to as ITLB, containing RPMI 1640 supplemented with 8×10^-7 M insulin (5 μg/ml), 7×10^-8 M transferrin (5 μg/ml), 2×10^-6 M linoleic acid, 2×10^-6 M delipidated BSA (0.12 mg/ml), 2 mM L-glutamine, 1 mM sodium pyruvate and antibiotics. […] The optimal concentration for stimulation of T cells was determined for each batch of anti-CD3 mAb and Con A. The optimal range of Con A was particularly narrow in serum-free medium (0.5-0.2 μg/ml) and varied with the cell density used. […]
# [5] = system: activated human thymocytes; conditions: cited from earlier work
SMILES,"difference in active concentration, 14HRR vs retinal [1] [fold]",support of B cell proliferation / response [1],active concentration ([1]; previous analyses with B lymphocytes (ref. 33)) [nM],growth of 5/2 cells [2],"minimal effective concentration ([2]; Homo sapiens, B-cell, 72 hours, refed daily, read-out: lowest bioactive concentration (bioactive down to)) [µM]",stimulation of lymph node T cells [3],Con A stimulated thymocyte proliferation [4],support of growth of activated human thymocytes [5]
"CC(C=CC=C(C)C(O)CO)=CC=C1C(C)=CCCC1(C)C (centres unmarked) [14HRR, 14-hydroxy-4,14-retro-retinol]",40,capable of supporting the proliferation of B cells in the absence of an external supply of retinal,50,active and capable of replacing retinol,0.01,effective over the same dose range as observed for thymocytes,,
"CC1=C(/C=C/C(C)=C/C=C/C(C)=C/CO)C(C)(C)CCC1 [retinol, all-trans retinol]",,,,enable 5/2 cells to grow,,,growing exponentially,The same is true for activated human thymocytes
CC1=C(/C=C/C(C)=C/C=C/C(C)=C/C(=O)O)C(C)(C)CCC1 [all-trans retinoic acid],,,,,,nearly inert,,The same is true for activated human thymocytes
